Read-outs that look alike come from different tables or passages of the source.

In series [1] the test system is human foreskin fibroblast (HFF) cells. The series is described as follows: Toxicity in human foreskin fibroblast cells. It counts as cell-based. The following applies: 100 μM.
The nature of series [2]: Pharmacokinetics in Sprague Dawley rats (Table 4). It counts as in vivo. To be noted: rat; for MRT inf: read-out: MRT0-∞. The source says:
Compound D1 was formulated in 0.3% DMA/1% SOLUTOL®/98.7% saline. Compound D6 was formulated in 0.5% DMA/1% SOLUTOL®/94.5% 0.01N HCl in saline/4% NaOH (pH 4-5).

For the next series, the system named is CSM14.1 cells. Nature of the series: ER stress cell survival assay (thapsigargin, […]-GLO). The following applies: dose-response. It counts as cell-based. On the procedure:
CSM14.1 cells were maintained in Complete Medium at 32° C.; wherein the Complete Medium contained Dulbecco's modified eagle medium (DMEM) with 10% fetal bovine serum (FSB), 1% L-glutamine, 100 IU/mL penicillin, and 100 μg/mL streptomycin. The cells were recovered from cultures by trypsinization and then seeded in 384 well plates (Greiner #781098) at a concentration of 1,000 cells/well in 20 μL of DMEM Assay Medium, wherein the DMEM Assay Medium contained 2% FBS, 100 IU/mL penicillin, and 100 μg/mL streptomycin. Seeding was performed using a MultiDrop Combi reagent broadcaster. The plates were incubated overnight at 32° C.
A test compound was prepared by 2-fold serial dilution in 100% DMSO using a BIOMEK® 2000 liquid handler (Beckman Coulter). A dose-response curve containing 10 concentrations of the test compound was obtained. Using a BIOMEK® FX liquid handler (Beckman Coulter), 2.5 μL of the test compound was transferred from the 100% DMSO serial dilution plate to an intermediate plate containing 47.5 μL of DMEM Assay Medium containing 2% FBS, 100 IU/mL penicillin, and 100 μg/mL streptomycin and mixed. To reduce or eliminate the interference from the compound's precipitation, 6 μL of the diluted compound was immediately transferred to the assay plate to achieve a high compound concentration of 100 μM in 99% DMEM Assay Medium and 1% DMSO. After the assay plates were incubated for 2 hrs, 4 μL of 112.5 μM thapsigargin (TG) (DMSO stock diluted into Assay TC Medium) was dispensed into each testing well with a MultiDrop Combi reagent broadcaster for a final concentration of about 15 μM TG. The tissue culture media (4 μL) containing vehicle only was transferred manually to each control cell using a 16 channel electronic pipette. […] High luminescence indicates cell survival.
Alternatively, a test compound was tested at a single compound concentration (e.g., 2 μM) to determine the effect of the compound on cell survival in comparison with vehicle.

A further series has as its system BT474 Cells. The series is described as follows: In vitro anticancer activity, monolayers (2D) and spheroids (3D), BT474. It counts as cell-based. The following applies: Homo sapiens. The procedure: (§1) The anticancer activity of a test compound was determined in vitro using mammalian tumor cells that grew as monolayers and spheroids. Spheroids represent the three-dimensional growth and organization of solid tumors, and thus are an intermediate model between monolayers of cells in culture and tumors in vivo. The cancer cell line tested was a breast cancer cell line, BT474. Normal breast tissue cells (MCF10A) were used as a control. The viability/proliferation of the cells were measured using […]-GLO® reagent.

The nature of series [3]: Pharmacokinetics in Beagle dogs (Table 5). It counts as in vivo. The following applies: dog; for MRT inf: read-out: MRT0-∞. The procedure:
For pharmacokinetic evaluation, 3 male Beagle dogs were intravenously (IV) dosed (1 mg/kg body weight) and 3 male Beagle dogs were orally (PO) dosed (10 mg/kg body weight) with a test compound. Blood (approximately 1.0 mL) was collected via femoral vein into tubes containing K3EDTA anticoagulant at 0, 0.017, 0.083, 0.5, 1, 2, 4, 6, 8, and 24 hours post-dosing. Plasma samples were analyzed by LC-MS/MS. The analytical results were confirmed using quality control samples for intra-assay variation. The accuracy of >66% of the quality control samples was between 80-120% of the known value(s). A standard set of pharmacokinetic parameters were generated from concentration data including Area Under the Curve (AUC0-t and AUC0-inf), elimination half-lives, clearances, volume of distribution and bioavailabilities (based on AUC0-t), maximum plasma concentration (C0; Cmax), and time to reach maximum plasma concentration (Tmax).

The next series concerns MCF10A Cells. Nature of the series: In vitro viability, monolayers (2D) and spheroids (3D), normal breast tissue cells. It counts as cell-based. The following applies: Homo sapiens, MCF-10A. The procedure: as §1
Series [4] relates to 6-OHDA lesioned Wistar rats. The series is described as follows: Rat unilateral 6-OHDA model of Parkinson's disease, initiation time (IT) test. It counts as in vivo. To be noted: D11, L-DOPA 8 mg/kg with benserazide 12.5 mg/kg IP once; 6-OHDA/Vehicle 37.88±6.10 sec. The procedure:
(§2) Fifty adult male Wistar rats were used. The rats from different groups (G1 to G5) were randomized. At the beginning of the study, the rats were about 5 weeks old and naive to previous administration of any drug.
(§3) A stereotaxic injection of 6-OHDA (G2 to G5) or saline (G1: sham group) was performed to induce a unilateral dopaminergic lesion on day 0 (D0). Surgery was performed on D0 under ketamine (50 mg/kg) and xylazine (10 mg/kg). The rats of G2 to G5 received a unilateral injection of 6-OHDA (6 μL) in the left substantia nigra pars compacta. Jouve et al., J. Neurosci. 2010, 30, 9919-9928. The rats of the G1 sham group were injected with saline. During surgery, local analgesia was achieved using subcutaneous injections of lidocaine. At the end of surgery, the rats were treated with buprenorphine (0.05 mg/kg, S.C.).
The IT test was performed both before the 6-OHDA lesion induction on D0 and on day 11 (D11) after the 6-OHDA lesion induction. Around six days (D−6) before the 6-OHDA lesion induction, the IT test was performed eight consecutive times for each limb of each rat to obtain baseline values. On D11, the IT test was performed one hour after the rats were dosed. For every test, only one of the two forelimbs of each rat was left free to move and the time that is necessary to initiate the movement toward a plane surface was recorded using 180 sec as break-off point. […]

The subject of series [5] is 6-OHDA lesioned Wistar rats. The series is described as follows: Rat unilateral 6-OHDA model of Parkinson's disease, cylinder test. It counts as in vivo. The following applies: D11, L-DOPA 8 mg/kg with benserazide 12.5 mg/kg IP once; 6-OHDA/Vehicle 23.17±6.45. The procedure: as §2, §3
The cylinder test was performed only on D11, after completion of the IT and stepping tests, and 1.5 hours after the rats were dosed. The rats were placed in a Plexiglas cylinder and immediately videotaped for 15 min. During this time, the number of contacts made on the cylinder wall with the ipsilateral, contralateral, and two paws simultaneously (double contacts) were recorded and then expressed as a percentage of the total number of contacts. Lundblad et al., Eur. J. Neurosci. 2002, 15, 120-132; Jouve et al., J. Neurosci. 2010, 30, 9919-9928. […]

The test system of series [6] is 6-OHDA lesioned Wistar rats. Nature of the series: Rat unilateral 6-OHDA model of Parkinson's disease, stepping test. To be noted: D11, L-DOPA 8 mg/kg with benserazide 12.5 mg/kg IP once; 6-OHDA/Vehicle 1.19±0.24 steps. It counts as in vivo. On the procedure:
as §2, §3
The stepping test was performed after IT test, both before the 6-OHDA lesion induction on D0 and on D11. Around D−6, the stepping test was performed eight consecutive times for the right paw of each animal to obtain baseline values. On D11, the stepping test was performed one hour after the rats were dosed. Each rat was hold by an experimenter and only one of the two forelimbs was left free to move above a plane surface and the other was held with the paw touching the table. The rats were then to be moved slowly forward by the experimenter. The number of adjusting steps was countered for the right paw. Olsson et al., J. Neurosci. 1995, 15, 3863-3875.
L-DOPA and benserazide (a peripheric DOPA decarboxylase inhibitor) were prepared together as a single solution containing 0.9% NaCl and 0.1% ascorbic acid.
All the dosings were given via the IP route, once daily, Sunday excluded.

Where [7] appears, read: Sprague Dawley, in vivo, IV (2 mg/kg).
Setting [8] is: Sprague Dawley, in vivo, PO (10 mg/kg).
Setting [9] is: male, Beagle, plasma, IV (1 mg/kg).
Setting [10] is: male, Beagle, plasma, PO (10 mg/kg).

As to `O=C(c1ccc(N2CCCC2)c([N+](=O)[O-])c1)N1CCN(c2ccnc3cc(Cl)ccc23)CC1` [Compound D6, (4-(7-Chloroquinolin-4-yl)piperazin-1-yl)(3-nitro-4-(pyrrolidin-1-yl)phenyl)methanone], the “toxicity in HFF cells” value in series [1] was “no toxicity”. In addition, the AUC(0-inf) (usually total exposure, with the tail of the curve extrapolated) in series [2] (setting [7]) stood at 8640 ± 650 ng·h/mL; in [2] (setting [8]) it was 21200 ± 1940 ng·h/mL; in series [3] (setting [9]), 14300 ± 2220 ng·h/mL; in [3] (setting [10]) it was 114000 ± 15500 ng·h/mL. Also, the AUC(0-t) (in general, the area under the concentration-time curve up to a stated or last time point) in series [2] (setting [7]) stood at 8600 ± 659 ng·h/mL; in [2] (setting [8]), 19900 ± 1510 ng·h/mL; in [3] (setting [9]) it was 13900 ± 2100 ng·h/mL; in series [3] (setting [10]), 110000 ± 15500 ng·h/mL. Moreover, the Cmax (commonly the maximum level reached in the sampled fluid or tissue) amounted to 39.7 ± 1.06 µM in [2] (setting [7]), 13 ± 3.56 µM in [2] (setting [8]), 12.7 ± 2.4 µM in [3] (setting [9]) and 26.5 ± 1.9 µM in series [3] (setting [10]). Besides, the Tmax (in general, the time from dosing to the highest level) in series [2] (setting [7]) came out at 0.02 h; in [2] (setting [8]), 0.42 ± 0.14 h; in series [3] (setting [9]), 0.02 h; in series [3] (setting [10]) it was 0.83 ± 0.29 h. The values for the clearance in series [2] (setting [7]) and in series [3] (setting [9]) were 3.83 mL/min/kg and 1.17 mL/min/kg, respectively. Besides, the half-life (in general, the time in which the quantity being followed falls by half) was 0.98 ± 0.13 h in series [2] (setting [7]), 1.79 ± 0.39 h in series [2] (setting [8]), 4.8 ± 0.4 h in series [3] (setting [9]) and 4.8 ± 0.6 h in series [3] (setting [10]). The MRT inf in series [2] (setting [7]) turned out to be 0.98 ± 0.09 h; in series [2] (setting [8]) it was 2.96 ± 0.66 h; in series [3] (setting [9]), 5.6 ± 0.4 h; in series [3] (setting [10]), 7 ± 0.3 h. In addition, the Vd amounted to 0.33 ± 0.03 L/kg in series [2] (Sprague Dawley, in vivo, IV (2 mg/kg), read-out: Vz) and 0.49 ± 0.04 L/kg in [3] (male, Beagle, plasma, IV (1 mg/kg), read-out: Vz). Moreover, the F is 44% in series [2] (PO (10 mg/kg) vs IV (2 mg/kg)) and 82% in series [3] (PO (10 mg/kg) vs IV (1 mg/kg), based on AUC0-t). For the same molecule, in the series with CSM14.1 cells, the EC50 (usually the concentration at which the effect is half-maximal) is below 20 µM. Further, the IC50 (usually the concentration that gives 50% inhibition) with BT474 Cells (BT-474, monolayers (2D), read-out: IC50 (2D)) is 5 µM; in the series with BT474 Cells (BT-474, spheroids (3D), read-out: IC50 (3D)) it was 8 µM; in the series with MCF10A Cells (monolayers (2D), read-out: IC50 (2D)), above 50 µM; in the series with MCF10A Cells (spheroids (3D), read-out: IC50 (3D)), above 50 µM.
Consider `N[C@@H](Cc1ccc(O)c(O)c1)C(=O)O` [L-DOPA, reference compound], for which the initiation time in series [4] was 1.28 ± 0.21 s. Also, the “percentage of double contacts” value in series [5] worked out at 46.67±4.60 double contacts. For the same molecule, the “number of adjusting steps” value in [6] was 10.05±0.56 steps.
